Measured values taken from patent US6498125B2, “Pyridine ketones useful as herbicides” (Syngenta Participations AG, priority 1998, dated 2002).
One block for each compound: values may come before it.

Assays:
[1] = test system: Monocotyledonous and dicotyledonous test plants; test: Example B2: post-emergence herbicidal action, 2 kg of AS/ha; format: in vivo; set-up: key: 1 = complete damage, 9 = no effect; details: 4- to 6-leaf stage, about 18 days, scale 1-9; for post-emergence action rating, Avena: test plant Avena; for post-emergence action rating, Setaria: test plant Setaria; for post-emergence action rating, Sinapis: test plant Sinapis; for post-emergence action rating, Solanum: test plant Solanum; for post-emergence action rating, Stellaria: test plant Stellaria
Method: Monocotyledonous and dicotyledonous test plants are grown in plastic pots with standard soil in a greenhouse and, in the 4- to 6-leaf stage, are sprayed with an aqueous suspension of the test substances of the formula 1, prepared from a 25% wettable powder (Example F3, b) according to WO 97134485) or with an emulsion of the test substances of the formula I, prepared from a 25% emulsion concentrate (Example F1, c) according to WO 97/34485), corresponding to a dosage of 2 kg of AS/ha (500 l of water/ha). The test plants are then grown further under optimum conditions in a greenhouse. After a test period of about 18 days, the test is evaluated with a nine-level scale of rating (1=complete damage, 9=no effect). Ratings of 1 to 4 (in particular 1 to 3) mean good to very good herbicidal action. In this test, the compounds of the formula I show strong herbicidal action.

[2] = test system: Monocotyledonous and dicotyledonous test plants; test: Example B1: pre-emergence herbicidal action, 2 kg of AS/ha; format: in vivo; details: 3 weeks, scale 1-9
Method: Monocotyledonous and dicotyledonous test plants are sown in standard soil in plastic pots. Immediately after sowing, the test substances are sprayed on (500 l of water/ha) as an aqueous suspension (prepared from a 25% wettable powder (Example F3, b) according to WO 97/34485) or emulsion (prepared from a 25% emulsion concentrate (Example F1, c)), corresponding to a dosage of 2 kg of AS/ha. The test plants are then grown under optimum conditions in a greenhouse. After a test period of 3 weeks, the test is evaluated with a nine-level scale of ratings (1=complete damage, 9=no effect). Ratings of 1 to 4 (in particular 1 to 3) mean good to very good herbicidal action.

SMILES: O=C(C1=C(O)C2CCC(C2)C1=O)c1ncc(C(F)(F)F)cc1Cl (stereo not drawn) [Compound 2.044]
melting point: 105 to 106 °C

SMILES: O=C(C1=C(O)C2CCC(C2)C1=O)c1ccnc(C(F)(F)F)c1 (stereo not drawn) [Compound 3.001]
melting point: 95 to 97 °C

SMILES: CSc1nccc(C(=O)C2=C(O)C3CCC(C3)C2=O)c1C#N (stereo not drawn) [Compound 3.055]
melting point: 108 to 110 °C

SMILES: CC1=CC(C)(C)C(O)=C(C(=O)c2ccc(C(F)(F)F)nc2C)C1=O [Compound 5.008]
post-emergence action rating, Avena [1]: 2
post-emergence action rating, Setaria [1]: 3
post-emergence action rating, Sinapis [1]: 1
post-emergence action rating, Solanum [1]: 1
post-emergence action rating, Stellaria [1]: 2
pre-emergence action rating, Avena ([2]; test plant Avena): 2
pre-emergence action rating, Cyperus ([2]; test plant Cyperus): 1
pre-emergence action rating, Setaria ([2]; test plant Setaria): 1
pre-emergence action rating, Sinapis ([2]; test plant Sinapis): 2
pre-emergence action rating, Solanum ([2]; test plant Solanum): 1
pre-emergence action rating, Stellaria ([2]; test plant Stellaria): 2

SMILES: Cc1nc(C(F)(F)F)ccc1C(=O)C1=C(O)C(C)(C)C=C([S+](C)[O-])C1=O (stereo not drawn) [Compound 5.083]
melting point: 161 to 162 °C

SMILES: Cc1nc(C(F)(F)F)ccc1C(=O)C1=C(O)C(C)(C)C=C(S(C)(=O)=O)C1=O [Compound 5.084]
melting point: 215 to 216 °C

Continued, in another order:

melting point: 176 to 177 °C
SMILES: CCC(=O)NC1CC(=O)C(C(=O)c2ccc(C(F)(F)F)nc2C)=C(O)C1 (stereo not drawn) [Compound 6.006]
post-emergence action rating, Avena [1]: 2
post-emergence action rating, Setaria [1]: 5
post-emergence action rating, Sinapis [1]: 2
post-emergence action rating, Solanum [1]: 2
post-emergence action rating, Stellaria [1]: 2

melting point: 186 to 187 °C
SMILES: Cc1nc(C(F)(F)F)ccc1C(=O)C1=C(O)CC(NC(=O)C(C)C)CC1=O (stereo not drawn) [Compound 6.041]

melting point: 195 to 196 °C
SMILES: Cc1nc(C(F)(F)F)ccc1C(=O)C1=C(O)CC(NC(=O)Nc2ccccc2)CC1=O (stereo not drawn) [Compound 6.076]

melting point: 163 to 164 °C
SMILES: Cc1nc(C(F)(F)F)ccc1C(=O)C1=C(O)CC(NC(=O)NC(C)(C)C)CC1=O (stereo not drawn) [Compound 6.111]

melting point: 96 to 97 °C
SMILES: Cc1nc(C(F)(F)F)ccc1C(=O)c1c([S+](C)[O-])noc1C1CC1 (stereo not drawn) [Compound 8.009, (5-cyclopropyl-3-methylsulfinylisoxazol-4-yl)-(2-methyl-6-trifluoromethylpyridin-3-yl)methanone]

melting point: 112 to 113 °C
SMILES: Cc1nc(C(F)(F)F)ccc1-c1onc([S+](C)[O-])c1C(=O)C1CC1 (stereo not drawn) [Compound 9.009, cyclopropyl-[3-methanesulfinyl-5-(2-methyl-6-trifluoromethylpyridin-3yl)isoxazol4-yl]methanone]
